Experiments:
[1] = tested on: National Cancer Institute panel of sixty human cancer cell lines; test: National Cancer Institute panel of sixty human cancer cell lines, growth; format: cell-based; conditions: 10 μM; NCI sixty human cancer cell lines
Mtb 20S = Mtb 20S (Mycobacterium tuberculosis, UniProt P9WHT9); conditions: second-order rate constant for inhibition; substrate Suc-LLVY-AMC; triplicate
[2] = tested on: HepG2 human liver carcinoma cell line; test: Toxicity to HepG2 cells; conditions: concentrations as high as 50 μM
Mtb 20S versus human 20S = conditions: human 20S over Mtb 20S; cited from earlier work

Chain of Mtb 20S (P9WHT9 58-291): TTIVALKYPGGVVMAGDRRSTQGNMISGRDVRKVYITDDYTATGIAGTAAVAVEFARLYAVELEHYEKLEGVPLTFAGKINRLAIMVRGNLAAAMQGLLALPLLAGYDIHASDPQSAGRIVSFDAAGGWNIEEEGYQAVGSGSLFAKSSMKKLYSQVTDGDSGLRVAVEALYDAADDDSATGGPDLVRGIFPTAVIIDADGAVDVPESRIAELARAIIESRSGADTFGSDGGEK
Chain of Mtb 20S (P9WHU1 whole entry partner): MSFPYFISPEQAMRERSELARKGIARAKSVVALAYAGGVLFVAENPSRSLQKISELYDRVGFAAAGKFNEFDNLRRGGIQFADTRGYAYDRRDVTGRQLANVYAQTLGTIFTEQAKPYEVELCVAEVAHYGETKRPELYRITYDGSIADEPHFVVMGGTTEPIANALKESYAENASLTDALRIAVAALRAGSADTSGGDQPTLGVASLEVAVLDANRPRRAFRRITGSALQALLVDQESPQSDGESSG

COC(=O)[C@@H](NC(=O)N[C@H](C(=O)N[C@H]1CCCCNC(=O)/C=C/[C@H](C(C)C)NC1=O)C(C)C)C(C)C [Compound 1, syringolin B methyl ester]
mean growth compared to untreated (vehicle) controls [1]: 27%
Mtb 20S kin/Ki (Mtb 20S): 4.60 M⁻¹ s⁻¹
toxicity to HepG2 cells [2]: toxic

CC(C)C[C@H](NC(=O)[C@H](Cc1ccccc1)NC(=O)c1cnccn1)B(O)O [bortezomib]
preference for reversible inhibition of human 20S (Mtb 20S versus human 20S): 18 fold

From PMC5410965 (ACS infectious diseases, 2016)
